Experimental data: patent US9656953B2, “Inhibition of cell proliferation” (University of South Florida, priority 2005, dated 2017)
Entries after “also recorded” stand apart in the source; their conditions may differ.

Experiments:
[1] = target: T1, binding of Rb to Raf-1 in A-549 cells (Homo sapiens, UniProt P04049+P06400); experiment: IP-western, serum stimulated A-549 cells, Rb:Raf-1; type: cell-based
T1 construct: endogenous in cells; host or cells: A549
From the text: (§1) Lysate preparation, pmmunoprecipitation, and pestern plotting.

Rb binding to E2F1 = target: T2, Rb binding to E2F1 (Homo sapiens, UniProt P06400+Q01094); experiment: IP-western, A-549 cells, Rb-E2F1; type: cell-based
T2 construct: endogenous in cells; host or cells: A549
From the text: as §1

cyclin D = experiment: Western/IP-western, cyclin D level and association with Rb; type: cell-based, human; conditions: IP-western
From the text: as §1

[2] = test system: Rb phosphorylation (serines 807 and 811); experiment: Western blot of Rb phosphorylation, A549 cells; type: cell-based, human; conditions: cells treated 18 hours, western blotting
From the text: as §1

Raf-1 = target: T3, Raf-1 (Homo sapiens, UniProt P04049); experiment: In vitro kinase assay, Raf-1; type: biochemical
T3 construct: purchased Upstate Signaling, Charlottesville, Va; (Raf-1); QED Bioscience, San Diego, Calif; (Rb)
Method: (§2) In vitro kinase assay. The kinase reaction for Raf-1 was carried out with 100 nanograms (ng) of Raf-1 (Upstate Signaling, Charlottesville, Va.), 0.5 μg of full-length Rb protein (QED Bioscience, San Diego, Calif.) as the substrate, 10 μM ATP, 10 μCi of [γ-^32P] ATP in the kinase assay buffer in the presence or absence of the drugs at 30° C. for 30 minutes. Cyclin D and E kinase assays are described in (Dasgupta 2004).

cyclin E kinase activity = experiment: In vitro kinase assay, cyclin E; type: biochemical
Method: as §2

U2-OS cells = experiment: BrdU incorporation, S-phase entry, U2-OS; type: cell-based; conditions: 20 μM, 18 hours, Rb wild type
Method: (§3) Proliferation assays. Bromodeoxyuridine (BrdU) labeling kits were obtained from Roche Biochemicals (Indianapolis, Ind.). Cells were plated in poly-D-lysine coated chamber slides at a density of 10,000 cells per well and rendered quiescent by serum starvation for 24 hours. Cells were then re-stimulated with serum in the presence or absence of the indicated drugs for 18 h. S-phase cells were visualized by microscopy and quantitated by counting 3 fields of 100 in quadruplicate.
(§4) Given the selectivity of 3a described in FIGS. 1 and 2 above for disrupting the Rb:Raf-1 interaction, it was examined if 3a can inhibit the proliferation of cells and whether such an inhibition required a functional Rb gene.

Saos-2 cells = experiment: BrdU incorporation, S-phase entry, Saos-2; type: cell-based; conditions: 20 μM, 18 hours, Rb null
Method: as §3, §4

A549 cells = experiment: BrdU incorporation, S-phase entry, A549; type: cell-based, human; conditions: 20 μM
Method: as §3
To further confirm that 3a requires a functional Rb to inhibit tumor cell proliferation, A549 cells (human epithelial lung carcinoma) were stably transfected with two different shRNA constructs (sh6 and sh8) to knock down Rb expression.

[3] = test system: Aspc1, PANC1, and CAPAN2 pancreatic cancer cells; experiment: BrdU incorporation, S-phase entry, pancreatic cancer cells; type: cell-based; conditions: range over three pancreatic cell lines
Method: as §3

[4] = test system: U251MG glioblastoma cell line; experiment: BrdU incorporation, S-phase entry, U251MG; type: cell-based; conditions: null for p16 and PTEN
Method: as §3

MDA-MB-231 cells = experiment: BrdU proliferation assay, MDA-MB-231; type: cell-based, human
Method: as §3
The metastatic human breast cancer cell line MDA-MB-231 harbors a K-Ras mutation and overexpresses EGFR.

LNCaP prostate cell line = experiment: BrdU proliferation assay, LNCaP; type: cell-based
Method: as §3
Prostate cell lines LNCaP and PC3 both contain mutations in K-Ras and PTEN genes.

[5] = test system: A549 cells infected with Ad-E2F1; experiment: BrdU incorporation, A549 infected with Ad-E2F1; type: cell-based, human; conditions: 20 μM of 3a for 36 h
Method: as §3
To this end, A549 cells were infected with Ad-E2F1 or Ad-cyclin D, in the presence of 20 μM of 3a for 36 h. Ad-GFP infected cells were used as a control.

[6] = test system: Human aortic endothelial cells (HAECs); experiment: Matrigel angiogenic tubule formation; type: cell-based; conditions: 20 μM
Method: Matrigel assays. […] A total of 100 μl of thawed Matrigel was added to 96-well tissue culture plates, followed by incubation at 37° C. for 60 minutes to allow polymerization. […] Capillary tube formation assessed by using a Leica DMIL phase contrast microscope.
An experiment was performed to determine whether angiogenic tubule formation could be inhibited by the disclosed compounds.

PANC1 cells = experiment: Soft agar assay, PANC1; type: cell-based
Method: Soft Agar Assay. Soft agar assays were done in triplicate in 12-well plates (Corning, Corning N.Y.). First, the bottom layer of agar (0.6%) was allowed to solidify at room temperature. Next the top layer of agar was (0.3%) was mixed with 5,000 cells per well and the indicated drug. The drugs were added twice weekly in complete media to the agar wells. Colonies were quantified by staining with MTT (3-(4,5-Dimethylthiazol-2-yl)-2,5-diphenyltetrazolium bromide) 1 mg/mL for 1 hour at 37° C.
Experiments were also carried out to examine the effect of 3a in inhibiting the adherence-independent growth of cancer cells in soft agar.

A549-sh6 tumors = experiment: A549-sh6 (Rb shRNA) xenograft in nude mice; type: in vivo; conditions: 150 mpk orally
Method: (§5) Animal Studies. Nude mice (Charles River, Wilminton, Mass., USA) were maintained in accordance with Institutional Animal Care and Use Committee (IAUCUC) procedures and guidelines. A549 cells were harvested and resuspended in PBS, and then injected s.c. into the right and left flanks (10×10^6 cells per flank) of 8-week old female nude mice as reported previously (Sun 99). When tumors reached about 100-200 mm^3, animals were dosed intraperitoneally i.p. or orally by gavage with 0.1 mL solution once daily. Control animals received a vehicle, whereas treated animals were given 3a or RRD-238a at the indicated doses. The tumor volumes were determined by measuring the length (l) and the width (w) and calculating the volume (V=lw^2/2) as described previously (Sun 99). Statistical significance between control and treated animals were evaluated using Student's t-test.
(§6) Athymic nude mice were implanted with 1×10^7 A549 cells bilaterally and the tumors were allowed to reach 200 mm^3 in size before treatment began. […] Furthermore, to examine whether 3a could affect the growth of tumors lacking Rb in vivo, sh6 and sh8 (shRNA for Rb) cell lines were implanted into the flanks of nude mice. The mice were given 3a orally at 150 mpk and the control groups were administered the vehicle.

A549-sh8 tumors = experiment: A549-sh8 (Rb shRNA) xenograft in nude mice; type: in vivo; conditions: 150 mpk orally
Method: as §5, §6

[7] = target: T4, Rb/E2F1 interaction in tumor xenografts (Homo sapiens, UniProt P06400+Q01094); experiment: IP-Western of tumor lysates, Rb/E2F1; type: in vivo, nude mice; conditions: both doses
T4 construct: from tissue; host or cells: A549 xenograft tumors from nude mice
T4 sequence (P06400 whole entry): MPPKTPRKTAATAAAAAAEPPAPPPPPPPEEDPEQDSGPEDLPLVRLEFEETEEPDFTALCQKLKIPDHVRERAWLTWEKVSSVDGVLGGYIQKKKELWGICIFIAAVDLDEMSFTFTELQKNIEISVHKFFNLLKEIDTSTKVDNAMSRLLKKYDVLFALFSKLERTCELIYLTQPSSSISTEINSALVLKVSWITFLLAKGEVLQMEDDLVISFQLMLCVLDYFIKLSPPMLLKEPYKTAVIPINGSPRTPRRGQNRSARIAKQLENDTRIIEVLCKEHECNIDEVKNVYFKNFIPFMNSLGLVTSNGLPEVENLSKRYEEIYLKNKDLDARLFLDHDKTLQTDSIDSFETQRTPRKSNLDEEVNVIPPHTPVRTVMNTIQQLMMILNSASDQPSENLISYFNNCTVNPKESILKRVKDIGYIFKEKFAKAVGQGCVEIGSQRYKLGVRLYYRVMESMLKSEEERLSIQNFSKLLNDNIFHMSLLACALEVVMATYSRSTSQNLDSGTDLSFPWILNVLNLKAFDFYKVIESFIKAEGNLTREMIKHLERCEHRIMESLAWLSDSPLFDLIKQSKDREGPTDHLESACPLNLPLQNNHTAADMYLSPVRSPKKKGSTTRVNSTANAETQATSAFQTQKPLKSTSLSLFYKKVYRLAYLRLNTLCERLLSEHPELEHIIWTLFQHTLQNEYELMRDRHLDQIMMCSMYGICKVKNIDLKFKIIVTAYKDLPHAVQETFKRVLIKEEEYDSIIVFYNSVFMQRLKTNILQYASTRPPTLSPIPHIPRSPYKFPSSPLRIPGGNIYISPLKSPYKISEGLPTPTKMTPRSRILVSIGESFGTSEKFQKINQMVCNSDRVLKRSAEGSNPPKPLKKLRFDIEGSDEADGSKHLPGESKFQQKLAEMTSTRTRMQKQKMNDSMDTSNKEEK
T4 sequence (Q01094 whole entry): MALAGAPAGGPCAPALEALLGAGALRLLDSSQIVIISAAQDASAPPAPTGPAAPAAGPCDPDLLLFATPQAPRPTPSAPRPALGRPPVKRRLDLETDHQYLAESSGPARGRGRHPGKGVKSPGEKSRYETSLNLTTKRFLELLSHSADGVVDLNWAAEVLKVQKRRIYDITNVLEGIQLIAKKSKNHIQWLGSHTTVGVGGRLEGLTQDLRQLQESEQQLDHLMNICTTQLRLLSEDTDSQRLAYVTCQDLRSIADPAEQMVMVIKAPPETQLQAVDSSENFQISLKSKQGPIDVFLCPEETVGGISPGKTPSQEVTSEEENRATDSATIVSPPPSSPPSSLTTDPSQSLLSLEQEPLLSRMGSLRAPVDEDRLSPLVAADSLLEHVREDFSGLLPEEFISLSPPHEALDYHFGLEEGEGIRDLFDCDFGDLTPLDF

T3 sequence (P04049 whole entry): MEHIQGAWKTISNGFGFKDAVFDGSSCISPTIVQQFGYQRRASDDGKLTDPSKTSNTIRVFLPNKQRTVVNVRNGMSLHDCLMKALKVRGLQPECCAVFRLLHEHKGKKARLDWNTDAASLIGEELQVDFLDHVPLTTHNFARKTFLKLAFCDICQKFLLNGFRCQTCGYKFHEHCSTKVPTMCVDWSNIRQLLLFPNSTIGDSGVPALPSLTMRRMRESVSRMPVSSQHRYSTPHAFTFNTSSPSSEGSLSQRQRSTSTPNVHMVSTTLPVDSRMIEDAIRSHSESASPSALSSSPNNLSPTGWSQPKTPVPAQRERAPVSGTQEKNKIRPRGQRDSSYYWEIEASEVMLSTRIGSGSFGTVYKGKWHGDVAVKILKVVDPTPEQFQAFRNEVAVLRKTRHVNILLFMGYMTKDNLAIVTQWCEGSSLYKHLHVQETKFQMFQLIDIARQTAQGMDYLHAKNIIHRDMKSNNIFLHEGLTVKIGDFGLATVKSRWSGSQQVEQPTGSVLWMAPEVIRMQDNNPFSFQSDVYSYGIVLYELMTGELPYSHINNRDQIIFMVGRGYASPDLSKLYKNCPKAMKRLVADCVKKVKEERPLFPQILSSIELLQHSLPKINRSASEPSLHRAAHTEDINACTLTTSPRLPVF
T1 sequence (P06400 whole entry): as the sequence (P06400 whole entry) above
T1 sequence (P04049 whole entry): as the sequence (P04049 whole entry) above
T2 sequence (P06400 whole entry): as the sequence (P06400 whole entry) above
T2 sequence (Q01094 whole entry): as the sequence (Q01094 whole entry) above

Cl.N=C(N)SCc1ccc(Cl)cc1Cl [Compound 3a]
serum stimulated binding of Rb to Raf-1 [1]: inhibited
Rb binding to E2F1 (Rb binding to E2F1): not affected
level of cyclin D and its association with Rb (cyclin D): tended to reduce the levels of cyclin D as well as its association with Rb; also recorded: reduced
Rb phosphorylation [2]: reduced Rb phosphorylation significantly; also recorded: marked reduction in Rb phosphorylation
Raf-1 kinase activity (Raf-1): does not inhibit; also recorded: did not affect the kinase activities
cyclin E kinase activity (cyclin E kinase activity): does not inhibit; also recorded: did not affect the kinase activities
S-phase entry (BrdU), U2-OS (U2-OS cells): inhibited S-phase entry
S-phase entry (BrdU), Saos-2 (Saos-2 cells): little effect
S-phase entry (BrdU), parental A549 (A549 cells): arrests wild-type A549 cells; also recorded: very effective
inhibition of S-phase entry, Aspc1, PANC1, CAPAN2 [3]: 50-65%
S-phase entry, U251MG [4]: inhibited S-phase entry
inhibition of proliferation, MDA-MB-231 (MDA-MB-231 cells): 56%
inhibition of proliferation, LNCaP (LNCaP prostate cell line): 86%
rescue of anti-proliferative activity by E2F1 over expression [5]: sufficient to overcome; also recorded: efficiently overcame the anti-proliferative activity
angiogenic tubule formation in matrigel [6]: inhibit angiogenic tubule formation; also recorded: significantly inhibited the angiogenic tubule formation
adherence-independent growth in soft agar, PANC1 (PANC1 cells): significantly inhibited the growth
tumor growth, A549-sh6 tumors lacking Rb (A549-sh6 tumors): unable to inhibit tumor growth; also recorded: did not respond
tumor growth, A549-sh8 tumors lacking Rb (A549-sh8 tumors): unable to inhibit tumor growth; also recorded: did not respond
Rb/E2F1 interaction in tumor lysates [7]: without inhibiting Rb-E2F1 interaction; also recorded: not Rb/E2F1 interaction
